Reference: US20250135020A1, “METHODS FOR TREATING NON-MUSCLE INVASIVE BLADDER CANCER (NMIBC) WITH ANTIBODY DRUG CONJUGATES (ADC) THAT BIND TO 191P4D12 PROTEINS” (priority 2021, published 2025)
Non-standard residues stand in square brackets, D forms with d. Residues, ends and D or L forms follow the SMILES beside them. *: point of attachment. Dolaproine = CO[C@@H]([C@@H]1CCCN1)[C@@H](C)C(=O)O; Dil = CC[C@H](C)[C@H](NC)[C@@H](CC(=O)O)OC; X1 = C[C@@H](N*)[C@@H](O)c1ccccc1; NMeV = CN[C@H](C(=O)O)C(C)C

Tested on: Nectin-4 overexpressing bladder carcinoma cells (UM-UC-3-hNectin-4+)
Assay: In vitro cytotoxic activity under conditions that mimic intravesical dosing (Cell TiterGlo)
Type: cell-based, human
Conditions: UM-UC-3-hNectin-4+ cells; 2 h exposure then wash out vs 96 h; cell death by Cell TiterGlo
Experimental: To assess cytotoxic activity of EV in vitro under conditions that mimic intravesical dosing, Nectin-4 overexpressing bladder carcinoma cells (UM-UC-3-hNectin-4^+) were exposed to either EV, unconjugated anti-Nectin-4 antibody, unconjugated MMAE, or control ADC (FIG. 2). IV dosing was modeled by exposing the cells for 96 hours. Intravesical dosing was modeled with exposures of 2 and 24 hours followed by test article wash out. Cell death was measured using Cell TiterGlo® (Promega Corporation, Madison, WI, USA).

## CC[C@H](C)[C@@H]([C@@H](CC(=O)N1CCC[C@H]1[C@H](OC)[C@@H](C)C(=O)N[C@H](C)[C@@H](O)c1ccccc1)OC)N(C)C(=O)[C@@H](NC(=O)[C@@H](NC)C(C)C)C(C)C [unconjugated MMAE, monomethyl auristatin E] (H-[NMeV]V[Dil][Dolaproine]-X1)
  Decrease in potency (EC90) on decreasing the exposure from 96 to 2 hours: 44 fold
